Data set [1] concerns rabbit reticulocyte hemolysis. Kind of data set: Inhibition of AP Dependent Hemolysis (rabbit cells in human serum). In kind it is cell-based, human serum; rabbit erythrocytes. The following applies: Oryctolagus cuniculus, GVB buffer with MgCl2 and EGTA, 37 °C, OD405. The method, then:
To quantify the inhibitory effects of compounds on the hemolytic activity of the alternative complement pathway, the AP hemolytic assay was employed. Test concentration of the compounds started at 100 μM and were diluted 3-fold in DMSO to produce 8-11 concentration points, with each concentration tested in technical triplicates. Human serum was added to rabbit reticulocytes in a solution of GVB buffer with MgCl2 and EGTA. After a period of incubation at 37 °C, spontaneous lysis of rabbit erythrocytes due to serum AP complement activity was quantified using OD405 absorbance, measured using the i3x plate reader.

Data set [2] in a line: Pharmacokinetic Studies in Rats. The data set is classed as in vivo, brown Norway rats. The settings on record: plasma, rat. The method, then: Three-month-old brown Norway rats were administered the Example compound intravenously (0.5 mg/kg dose, formulation: 10% 1,2-Propanediol+25% (20% solutol HS 15 in water)+65% phosphate buffered saline at 0.1 mg/mL) and via oral gavage at 2 mg/kg dose as a clear solution (0.5% MC+0.5% Tween 80 in water at 1 mg/mL). Plasma was collected from rats per time point at 0.25, 0.5, 1, 6, and 24 h after administration. The concentrations of the test article were measured in plasma by HPLC-MS/MS, two individual plasma samples at each time point. Chromatographic separation was carried out on Waters BEH C18 Column (2.1×50 mm, 1.7 μm) column (MAC-MOD Analytical, Chadds Ford, PA), using a gradient elution method with water and acetonitrile, both containing 0.025% formic acid-1 mM NH4OAc. Mass spectrometric measurements in positive electrospray ionization were directed at quantifying the mass transition with [M+H]^+ as the precursor ion on API6500, triple quadruple mass spectrometer (Sciex, Framingham, MA). The relevant pharmacokinetic parameters were estimated using noncompartmental methods using WinNonlin (Enterprise, version 8.2).

Data set [3] deals with MAC (Membrane Attack Complex) formation. The data set is described as follows: Inhibition of Human MAC Deposition (AP deposition assay, LPS activation, ELISA of C5b-9). The following applies: human serum, LPS coated plates, GVB buffer with MgCl2 and EGTA, C5b-9 detection. In kind it is biochemical. On the procedure: To quantify the inhibitory effects of compounds on complement protein deposition following LPS activation of the alternative complement pathway, the AP deposition assay was employed. Test concentration of the compounds started at 11.1 μM or 3.70 µM and were diluted 3-fold in DMSO to produce 8 concentration points, with each concentration tested in technical triplicates. Human serum was combined with test compounds in GVB buffer containing 5 mM MgCl2 10 mM EGTA, and was added to LPS coated black Maxisorp plates. After a period of incubation, the plate was inverted, and ELISA detection of complement proteins bound to LPS was performed. A primary antibody that detected human C5b-9 was used, followed by a compatible HRP conjugated secondary antibody. Peroxidase activity was detected using the Quantablu Fluorogenic Peroxidase substrate kit and fluorescence was measured at 340 nm/435 nm using the i3x plate reader to determine the quantity of alternative pathway complement protein deposition.
A general note: In an ELISA, binding on a coated surface is turned into a signal by an enzyme label.

For data set [4], the target named is T1, human Factor B (Homo sapiens, UniProt P00751).
T1 construct: Recombinant human Factor B catalytic domain (a.a. 470-764, C-terminal his-tagged, produced in-house); made in house
T1 sequence (P00751 470-764): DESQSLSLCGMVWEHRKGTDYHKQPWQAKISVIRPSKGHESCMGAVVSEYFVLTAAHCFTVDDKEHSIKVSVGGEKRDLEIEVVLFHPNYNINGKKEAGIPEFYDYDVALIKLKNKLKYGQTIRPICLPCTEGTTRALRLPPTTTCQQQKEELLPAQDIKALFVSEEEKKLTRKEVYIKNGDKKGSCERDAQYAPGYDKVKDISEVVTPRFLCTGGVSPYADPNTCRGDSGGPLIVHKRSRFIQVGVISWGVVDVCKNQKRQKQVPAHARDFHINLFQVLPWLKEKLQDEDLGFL
Kind of data set: Factor B Binding Assay by TR-FRET. The settings on record: recombinant human Factor B catalytic domain 10 nM, 100 nM tracer, 1 h. On the procedure:
• 1. Recombinant human Factor B catalytic domain (a.a. 470-764, C-terminal his-tagged, produced in-house) • 2. 5× Kinase Buffer A (Thermo Fisher, CAT #PV3189) • 3. LANCE Eu-W1024 Anti-6×His Antibody (PerkinElmer, CAT #AD0401) • 4. Probe (TRFRET_tool 2, reported in WO 2015/009616)
[drawing 252] • 5. DMSO (Thermo Fisher Scientific) • 6. Compounds-10 mM stock in DMSO • 7. Victor Nivo multimode plate reader (PerkinElmer) • 8. OptiPlate-384, white opaque 384-well microplate (PerkinElmer, CAT #6007290)
Factor B binding affinity of each compound tested was determined using a time-resolved fluorescence resonance energy transfer (TR-FRET) technology. 10 nM recombinant his-tagged Factor B catalytic domain, varying concentrations of inhibitors, 4 nM LANCE Eu-W1024 Anti-6×His Antibody and 100 nM TRFRET_tool2 tracer was incubated in 1× Kinase Buffer A for 1 h. Measurement was performed in a reaction volume of 15 μL by adding 5 μL of the test compound, 5 μL of Factor B/antibody mixture and 5 μL of tracer into white opaque 384-well assay plates. The TR-FRET signal was read on a plate reader with an excitation wavelength of 340 nm and detection wavelengths of 615 and 665 nm. Binding affinity was determined for each compound by measuring TR-FRET signal at various concentrations of compound and plotting the relative fluorescence Emission Ratio (665 nm/615 nm) against the inhibitor concentration to estimate the IC50 from [Compound] vs Emission Ratio using the four parameters dose-response inhibition curve with a variable slope model in GraphPad Prism.
The binding affinity to recombinant Factor B catalytic domain of the compounds of the present invention was determined by the above assay, and IC50 values (nM) are shown in the following table.
(In TR-FRET formats the signal depends on donor and acceptor labels being close together.)

Data set [5] has as its target T1, human Factor B. Kind of data set: Target Residence Time of Factor B Inhibitors Determined by Surface Plasmon Resonance (SPR). The settings on record: for Kd: immobilized recombinant human Factor B catalytic domain, room temperature; for t1/2 (binding half-life): t1/2=ln 2/kd; for residence time: tR=1/kd. The data set is classed as binding. The text has this: • 1. Recombinant human Factor B catalytic domain (a. a. 470-764, C-terminal his-tagged, produced in-house) • 2. PBS-P+ Buffer 10× (Cytiva, CAT #28995084) • 3. Series S Sensor Chip NTA (Cytiva, CAT #BR100532) • 4. Amine Coupling Kit (Cytiva, CAT #BR100050) • 5. DMSO (Millipore Sigma, CAT #34869-1L) • 6. Greiner 96 well plates, polypropylene (Sigma-Aldrich, CAT #M7310-100EA) • 7. Microplate Foil, 96-well (Cytiva, CAT #28975816) • 8. Biacore 8k (Cytiva)
Biacore 8k instrument was primed using 1×PBS-P+ buffer before docking a Cytiva NTA chip. Recombinant human Factor B catalytic domain were immobilized on a NTA chip to a level of about 5000 resonance units (RU) using 1×PBS-P+ buffer [[…] phosphate buffer with 2.7 mM KCl, 137 mM NaCl, and 0.05% (v/v) Tween-20]. The protein ligand was further crosslinked to sensorchip surface by amine coupling kit. Immobilization and binding experiment were performed at room temperature.
After changing buffer to 1×PBS-P+ buffer with 2% (v/v) DMSO, a pre-run was performed for a period of at least 30 min at a flow rate of 30 μl/min to obtain a stable surface. The kinetic constants of the compounds were determined by single-cycle kinetics with six consecutive injections (or multi-cycle kinetics with eight consecutive injections) with an increasing compound concentration in ranges of 0.8-200 nM, 12.5-400 nM, 4.1-1,000 nM or 41-10,000 nM depending on the potency. Single-cycle kinetics experiments were performed with an association time of 60 s per concentration and a dissociation time of 300 s (or a dissociation time of 120 s for multi-cycle kinetics experiments). A flow rate of 30 μl/min was used. A blank run with the same conditions was performed before the compound was injected.
The SPR sensorgrams were analyzed with Biacore Insight Evaluation Software by using a method of double referencing. The resulting curve was fitted with a 1:1 binding model. The kinetic constants (ka, kd, KD) of replicates were averaged. Residence time (tR) was calculated from the dissociation constant kd with the formula tR=1/kd. Binding half-life (t1/2) was calculated from the dissociation constant kd with the formula t1/2=ln 2/kd

Molecules are shown by their SMILES.

By IC50 is commonly meant the concentration that gives 50% inhibition. The bioavailability is dose-corrected exposure relative to a reference, in per cent. Read a low bioavailability as poor availability. The term Kd denotes the concentration at which binding is half-saturated. The residence time is how long the partners stay bound on average. `COc1cc(C)c2[nH]ccc2c1CN1CCC2(CC(F)(F)C2)CC12CCc1cc(C(=O)O)ccc12` (single isomer, unassigned) [Example 1 isomer 1, 3,3-difluoro-1′-((5-methoxy-7-methyl-1H-indol-4-yl)methyl)-2″,3″-dihydrodispiro[cyclobutane-1,4′-piperidine-2′,1″-indene]-5″-carboxylic acid] gave an IC50 in data set [1] of 220 nM. The compound further returned a bioavailability in data set [2] (2 mg/kg, 0.5 mpk IV and 2 mpk PO) of 56%. In addition, in data set [2] (0.5 mg/kg IV, read-out: 0.5 MPK IV arm CL), the clearance was found to be 1.3 mL/min/kg. Besides, the half-life in data set [2] (2 mg/kg PO, read-out: T½ (h) - 2 MPK PO (converted)) is 8.5 h. For the same compound, the AUC(0-t) in data set [2] (0.5 mpk IV and 2 mpk PO (arm not printed in this column head), read-out: Plasma AUC0-last) was determined as 25.4 µM·h. The IC50 in data set [3] is 147 nM. In addition, the IC50 on human Factor B [4] stood at 1.05 nM. Also, at human Factor B [5], the Kd came out at 0.9 nM, the “t1/2 (binding half-life)” value was 11.8 min and the residence time was 16.9 min.
Compound `COc1cc(C)c2[nH]ccc2c1CN1CCC2(CC(F)(F)C2)C[C@]12CCCc1cc(C(=O)O)ccc12` (single isomer, unassigned) [Example 2 isomer 1] came in with an IC50 in data set [1] of 283 nM. In data set [3], this compound registered an IC50 of 129 nM. In addition, the IC50 at human Factor B [4] was determined as 2.01 nM. On human Factor B [5], the Kd was determined as 2.2 nM, the “t1/2 (binding half-life)” value was 13.6 min and the residence time was 19.6 min.
In the case of `COc1cc(C)c2[nH]ccc2c1CN1CCC2(CC(F)(F)C2)C[C@@]1(C)c1ccc(C(=O)O)cc1` (single isomer, unassigned) [Example 3 isomer 1], in data set [1], inhibition was half-maximal at 252 nM (IC50). This compound gave an IC50 in data set [3] of 193 nM. Moreover, the 50% inhibitory concentration (IC50) on human Factor B [4] is 1.14 nM. On human Factor B [5], the Kd was found to be 1.73 nM, the “t1/2 (binding half-life)” value was 12.6 min and the residence time was 18.2 min.

Values taken from patent US20260355166A1, “2-SUBSTITUTED PIPERIDINE DERIVATIVES, PREPARATION METHODS AND MEDICINAL USES THEREOF” (JIANGSU HANSOH PHARMACEUTICAL GROUP CO., LTD., priority 2022, published 2026).
